What all share (experiment): NCI anticancer screen, dose series, 48 h
For assay [1], the system named is CCRF-CEM leukemia.
For assay [2], the system named is DU-145 prostate.
Assay [3] deals with OVCAR-4 ovarian.
The test system of assay [4] is PC-3 prostate.
The subject of assay [5] is UO-31 renal.
In assay [6] the test system is K-562 leukemia.
The test system of assay [7] is BT-549 breast.
Assay [8] relates to MDA-MB-231 breast.
Assay [9] deals with SF-539 CNS.
Assay [10] has as its system A498 renal.

Several values for one entry are separate records, joined by “and”; a condition that tells them apart may be missing. Equal values may be shown once.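 Step 1: Grow cells in 96-well plates. Step 2: Expose to compound for 48 hours at 5 concentrations. Step 3: Interpolate endpoints linearly; if unreached, use highest concentration. The concentration for 50% growth inhibition is given as GI50. The concentration for full growth arrest is given as TGI.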

The values below come from PubChem BioAssay (NCI).

Turning to `O=C1NC(=O)/C(=C/C=C/c2ccccc2)S1`, the GI50 was 2.01 µM in [1]; 3.76 µM in [2]; 80.8 µM in assay [3]; 19.4 µM in assay [4]; 2.81 µM in [5]; 3.27 µM in [6]. The GI50 was 2.34 µM in assay [7], 30.4 µM in assay [8], 0.384 µM in assay [9] and 0.373 µM in assay [10]. Moreover, the TGI was more than 100 µM in [1]; 36.6 µM in assay [2]; more than 100 µM in assay [3]; more than 100 µM in assay [4]; 30.4 µM in assay [5]; more than 100 µM in [6]. Also, the TGI in [7] was 58.1 µM; in assay [8], more than 100 µM; in [9] it was 3.16 µM; in assay [10] it was 18.8 µM.
For the molecule `CC(=O)Oc1ccc(OC(C)=O)c2ccccc12`, the GI50 was 15.9 µM in assay [2]; 1.71 µM in assay [3]; 6.24 µM in [4]; 2.14 µM in assay [5]; 3.39 µM in assay [6]; 13.5 µM in [7]. For the same molecule, the results for the GI50 in assay [8], in assay [9] and in assay [10] were 1.17 µM, 13.2 µM and 19.2 µM, respectively. Further, the TGI in assay [2] was found to be 29.6 µM; in [3] it was 3.1 µM; in assay [4], 25.6 µM; in assay [5], 16.1 µM; in assay [6] it was 22 µM; in [7] it was 26.6 µM. In addition, the TGI is 2.48 µM in assay [8], 26.4 µM in assay [9] and 48.4 µM in [10].
Turning to `CN(C)c1ccc(/C=C2\C[C@H]3[C@@H]4CC=C5C[C@@H](N6CCCC6)CC[C@]5(C)[C@H]4CC[C@]3(C)[C@H]2O)cc1`, the GI50 in [2] was 13.7 µM; in [3] it was 2.16 µM; in [4], 2.82 µM; in [5] it was 1.96 µM; in assay [6] it was 2.36 µM; in [7] it was 17.4 µM. In addition, the values for the GI50 in assay [8] and in assay [10] were 2.23 µM and 2.89 µM, respectively. Also, the TGI in assay [2] is 13.7 µM and > 100 µM; in [3], 2 µM and 5.96 µM; in [4], 50 µM and 12 µM; in assay [5], 1.62 µM and 4.25 µM; in assay [7] it was 9.72 µM and 53.1 µM; in [8] it was 2.16 µM and 4.46 µM. Further, the TGI in [9] is 12.8 µM; in assay [10], 2.1 µM and 8.92 µM.
In the case of `Cc1cccc(C(C)(C)C)c1NC(=O)/C(Cc1nc2ccc([N+](=O)[O-])cc2[nH]c1=O)=N/NC(=O)C[N+](C)(C)C`, the TGI in assay [2], in assay [3], in [4], in assay [5], in [6] and in [7] was more than 100 µM each time. The TGI in [8], in assay [9] and in assay [10] was more than 100 µM throughout.
As for `O=C1c2ccccc2C(=O)c2c1ccc(C(Br)Br)c2[N+](=O)[O-]`, the GI50 was 0.582 µM in assay [1]; 1.98 µM in assay [2]; 1.34 µM in [3]; 1.74 µM in assay [4]; 1.52 µM in assay [5]; 2.51 µM in assay [7]. Besides, the GI50 in assay [8] is 1.55 µM; in assay [9], 1.76 µM; in [10], 1.67 µM. Moreover, the TGI in assay [1] came to 2.53 µM; in assay [2], 4.01 µM; in assay [3], 2.73 µM; in [4] it was 3.47 µM; in [5], 2.93 µM; in assay [7], 8.3 µM. The TGI in assay [8] was 3.13 µM; in assay [9], 3.41 µM; in assay [10], 7.73 µM.
With `COC(=O)C(/C(=N/NC(=O)c1ccncc1)C(=O)Nc1ccccc1OC)c1nc2ccc(Cl)cc2[nH]c1=O` (configuration not stated), the TGI in assay [3], in [4], in assay [5], in assay [6], in assay [7] and in [8] was more than 100 µM throughout. In addition, the TGI in assay [9] and in [10] was more than 100 µM throughout.
In the case of `O=C(O)c1c(O)c2cc(Br)ccc2oc1=O`, the TGI in assay [1], in [2], in assay [3], in assay [4], in assay [6] and in [7] was more than 100 µM each time. The TGI in assay [8], in assay [9] and in [10] was more than 100 µM in each case.
`Cc1ccc(C(=O)N(C(C)C)C(C)C)cc1N=NN(C)C`: the TGI in assay [2], in assay [3], in [4], in assay [5], in assay [6] and in [7] was more than 100 µM throughout. The TGI in assay [8] and in assay [9] was more than 100 µM each time.
For `O=c1[nH]cc(CS(=O)(=O)Cc2c[nH]c(=O)[nH]c2=O)c(=O)[nH]1`, the TGI in [2], in assay [3], in [4], in assay [5], in [6] and in [7] was more than 100 µM in each case. Besides, the TGI in [8], in assay [9] and in [10] was more than 100 µM throughout.
As to `O=C(c1ccccc1)C1C(C(=O)c2ccccc2)N1Cc1ccccc1` (configuration not stated), the TGI in [1] was more than 100 µM; in [2], 85.8 µM; in [3], more than 100 µM; in assay [4], more than 100 µM; in assay [5], more than 100 µM; in assay [6], more than 100 µM. Moreover, the TGI is 72 µM in assay [7], more than 100 µM in [8] and more than 100 µM in assay [10].
`CN(C(=O)C1(C(=O)C=[N+]=[N-])CC1)c1ccccc1`: the TGI in assay [1], in [2], in assay [4], in assay [5], in [6] and in assay [7] was more than 100 µM each time. The TGI in assay [8] and in [9] was more than 100 µM in each case.
